Consider two molecules from US20110077581A1, “TARGETED CELLULAR DELIVERY OF NANOPARTICLES” (GEORGIA TECH RESEARCH CORPORATION, priority 2009, published 2011).

The test system of data set [1] is ERα(+) MCF-7 breast cancer cells. The data set can be described thus: Cell viability assay (MTT or XTT) in ERα(+) MCF-7 breast cancer cells. In kind it is cell-based, human. As to conditions: conjugate as effective TAM-PEG-SH ligand concentration, read-out: IC50 (50% inhibitory concentration), cell viability. As to the method: Cell culture and nanoparticle incubation. ERα(−) MDA-MB-231 and ERα(+) MCF-7 breast cancer cells (human adenocarcinoma, ATCC) or ERα(+) human squamous cell carcinoma (43-45) (HSC-3) cells were cultured to 10^5 cells/cm^2 in DMEM growth media supplanted with 10% v/v heat-inactivated fetal bovine serum, penicillin (100 U/ml), streptomycin (100 μg/ml), 4.5 g/L glucose, […], without L-glutamine and phenol red at 37° C. in a 5% CO2 humidified atmosphere. Growth media was removed from the cell cultures and replaced with identical media containing gold nanoparticle conjugates heated to 37° C. at time=0 h.
Cell viability assay. Following incubation, growth media containing gold nanoparticle conjugates was removed and cells were rinsed twice in sterile Dulbecco's phosphate buffered saline (DPBS). Mitochondrial dehydrogenase activity was assessed by MTT or XTT spectrophotometric assay (Sigma TOX1, TOX2) following the manufacturer's instructions. The assay was performed using a SpectraMax Plus 384 microplate reader and statistical analysis was performed by t-test.

For data set [2] the following is noted: cited from earlier work.
Data set [3] deals with MCF-7 cells. Kind of data set: In vitro laser photothermal therapy of MCF-7 cells. It counts as cell-based, human. As to conditions: MCF-7, 0.5 μM, 24 h. As to the method: Following this incubation, cell cultures ere gently rinsed in sterile DPBS buffer and replaced with unmodified growth media prior to laser photothermal treatment. Laser photothermal treatment was performed using the 514.5 nm line of an argon ion laser (Innova 300 Coherent) for 2 min at room temperature (0.32 cm^2). Control cells were similarly removed, however, were untreated with the laser.

Like-named read-outs stand apart in the source and are kept apart here.

As for Thiol-pegylated tamoxifen [TAM-PEG-SH], the IC50 in data set [1] (MCF-7, 24 h incubation) came to 3.6 µM; in data set [1] (MCF-7, 36 h incubation), 1.4 µM; in data set [1] (MCF-7, 48 h incubation), 1.1 µM.
Consider `CC/C(=C(\c1ccccc1)c1ccc(OCCN(C)C)cc1)c1ccccc1` [tamoxifen], for which the “steady-state blood plasma concentration” value in data set [2] (tamoxifen administered at 10 mg/day) is 0.40 µM; in data set [2] (tamoxifen administered at 20 mg/day), 0.81 µM. For the same molecule, in data set [3], the “in vitro cytotoxicity in the absence of laser treatment” value is given as “no appreciable in vitro cytotoxicity”.
